Measured values: patent publication EP0420266A2, “Chromene or thiochromene derivatives, process for preparing the same, intermediate therefor, pharmaceutical compositions containing said derivatives and the use of said derivatives” (TANABE SEIYAKU CO., LTD., priority 1989, dated 1991)

Target: T1, HMG-CoA reductase (HMGR) (Rattus norvegicus, UniProt P51639)
T1 construct: Microsomes prepared from liver of rats administered with cholestyramine; from tissue
T1 sequence (P51639 1-887): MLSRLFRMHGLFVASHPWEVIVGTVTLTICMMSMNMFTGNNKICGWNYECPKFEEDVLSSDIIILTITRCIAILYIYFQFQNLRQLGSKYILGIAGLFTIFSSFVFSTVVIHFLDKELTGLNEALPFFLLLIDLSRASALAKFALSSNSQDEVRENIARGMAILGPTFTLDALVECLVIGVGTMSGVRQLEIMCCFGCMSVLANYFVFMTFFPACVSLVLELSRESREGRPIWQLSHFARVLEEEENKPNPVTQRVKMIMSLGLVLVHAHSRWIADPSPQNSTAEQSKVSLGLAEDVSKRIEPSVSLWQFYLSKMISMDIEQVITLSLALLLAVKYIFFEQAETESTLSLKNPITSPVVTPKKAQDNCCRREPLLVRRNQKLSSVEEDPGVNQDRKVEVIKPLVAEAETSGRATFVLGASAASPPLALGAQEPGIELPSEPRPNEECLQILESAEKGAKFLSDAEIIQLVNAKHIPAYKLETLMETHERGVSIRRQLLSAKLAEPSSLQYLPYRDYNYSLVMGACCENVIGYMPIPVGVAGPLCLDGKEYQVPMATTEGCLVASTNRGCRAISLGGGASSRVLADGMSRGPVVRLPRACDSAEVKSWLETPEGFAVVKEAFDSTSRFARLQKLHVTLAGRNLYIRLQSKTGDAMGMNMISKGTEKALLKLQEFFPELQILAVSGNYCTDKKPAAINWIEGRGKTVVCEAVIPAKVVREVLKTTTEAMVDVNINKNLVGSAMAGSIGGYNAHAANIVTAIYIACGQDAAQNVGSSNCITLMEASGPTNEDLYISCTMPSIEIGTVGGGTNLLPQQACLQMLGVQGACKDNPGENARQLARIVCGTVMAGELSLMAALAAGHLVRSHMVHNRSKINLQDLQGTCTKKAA
Test: Inhibitory activity against rat hepatic microsomal HMG-CoA reductase (HMGR)
Assay type: biochemical
Settings: rat liver microsomes, ¹⁴C-HMG-CoA substrate, 10 minutes incubation
Description: Experiment [Inhibitory Activity against Rat Hepatic Microsomal HMG-CoA reductase (HMGR)]
HMGR activities of microsomes were measured in accordance with the method of N. L. Young et al., Methods in Enzymology, 71, 498 (1981).
Microsomes prepared from liver of rats administered with cholestyramine were mixed with a solution of the compounds to be tested in dimethyl sulfoxide and ¹⁴C-HMG-CoA (substrate). After the mixture was incubated for 10 minutes, the reaction was quenched with 6N hydrochloric acid and the mixture was allowed to stand at 37°C for 15 minutes, followed by centrifugation. The supernatant was spotted on thin layer chromatography (TLC; Kieselgel 60F254 manufactured by Merck) and developed with toluene/acetone (1:1). The spot of ¹⁴C-mevalonolactone was collected and the amount of isotope was measured with a scintillation counter (Type 4640 TRI-CARB. manufactured by Paccard) to calculate an amount of the formed mevalonolactone. By comparing amounts of the formed mevalonolactone in the group treated with test compounds and the control group (without test compounds), HMGR activity inhibition rates of the test compounds were calculated.

Structure (SMILES) | HMGR Inhibition (%) (Conc. of Compounds 10⁻⁶ M) | HMGR Inhibition (%) (Conc. of Compounds 10⁻⁷ M)
CCC1(CC)Oc2ccccc2C(c2ccc(F)cc2)=C1/C=C/[C@@H](O)C[C@@H](O)CC(=O)[O-].[Na+] (relative stereo) [A, (3R*,5S*)-(E)-7-[4-(4-Fluorophenyl)-2,2-diethyl-2H-chromen-3-yl]-3,5-dihydroxy-6-heptenoic acid sodium salt] | 100 | 67
CCC1(CC)Oc2ccccc2C(c2ccc(F)cc2)=C1/C=C/[C@H]1C[C@H](O)CC(=O)O1 (relative stereo) [B, Trans-(E)-6-[2-(4-(4-fluorophenyl)-2,2-diethyl-2H-chromen-3-yl)-1-ethenyl]-3,4,5,6-tetrahydro-4-hydroxy-2H-pyran-2-one] | 84 | 32
CCC1(CC)Sc2ccccc2C(c2ccc(F)cc2)=C1/C=C/[C@@H](O)C[C@@H](O)CC(=O)[O-].[Na+] (relative stereo) [C, (+)-(3R*,5S*)-(E)-7-[4-(4-Fluorophenyl)-2,2-diethyl-2H-thiochromen-3-yl]-3,5-dihydroxy-6-heptenoic acid sodium salt] | 90 | 45
